Results published in US9532983B2, “Benzofuran compounds, compositions, kits and/or methods thereof” (Savannah State University, priority 2013, dated 2017).
“Also recorded” adds a separate entry of the source.

Assays:
M4 = target: T1, M4 (Homo sapiens, UniProt P08173); experiment: Secondary binding assay, Ki determination: M4
T1 construct: expressed in transfected cells
T1 sequence (P08173 1-479): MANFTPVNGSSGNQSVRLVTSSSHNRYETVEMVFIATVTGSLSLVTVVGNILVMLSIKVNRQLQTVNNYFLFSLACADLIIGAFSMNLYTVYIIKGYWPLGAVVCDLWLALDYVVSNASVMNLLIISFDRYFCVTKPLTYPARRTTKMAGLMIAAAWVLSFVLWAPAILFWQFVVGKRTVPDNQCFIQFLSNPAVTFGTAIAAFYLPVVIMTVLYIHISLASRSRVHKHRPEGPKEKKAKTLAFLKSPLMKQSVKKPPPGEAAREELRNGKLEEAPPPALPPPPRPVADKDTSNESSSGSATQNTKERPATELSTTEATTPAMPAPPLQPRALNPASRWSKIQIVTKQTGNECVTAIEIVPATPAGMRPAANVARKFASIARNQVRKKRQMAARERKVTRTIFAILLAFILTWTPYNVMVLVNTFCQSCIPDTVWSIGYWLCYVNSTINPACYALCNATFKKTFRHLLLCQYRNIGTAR

5HT3 = target: T2, 5HT3 (Homo sapiens, UniProt P46098); experiment: Secondary binding assay, Ki determination: 5HT3
T2 construct: expressed in transfected cells
T2 sequence (P46098 24-478): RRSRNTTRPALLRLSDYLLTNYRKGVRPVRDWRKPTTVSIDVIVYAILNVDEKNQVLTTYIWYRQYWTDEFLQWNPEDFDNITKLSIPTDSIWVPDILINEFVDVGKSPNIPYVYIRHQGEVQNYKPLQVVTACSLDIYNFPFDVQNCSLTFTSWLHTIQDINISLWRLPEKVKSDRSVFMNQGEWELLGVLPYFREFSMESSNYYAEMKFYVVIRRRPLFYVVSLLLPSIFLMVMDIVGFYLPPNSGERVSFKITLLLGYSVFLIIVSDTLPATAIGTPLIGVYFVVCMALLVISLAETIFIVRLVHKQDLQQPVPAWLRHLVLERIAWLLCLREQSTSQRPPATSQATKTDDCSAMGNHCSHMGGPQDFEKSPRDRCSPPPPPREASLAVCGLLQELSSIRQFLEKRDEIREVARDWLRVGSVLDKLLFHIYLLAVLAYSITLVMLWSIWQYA

5-HT2A = target: T3, 5-HT2A (Homo sapiens, UniProt P28223); experiment: Secondary binding assay, Ki determination: 5-HT2A
T3 construct: expressed in transfected cells
T3 sequence (P28223 whole entry): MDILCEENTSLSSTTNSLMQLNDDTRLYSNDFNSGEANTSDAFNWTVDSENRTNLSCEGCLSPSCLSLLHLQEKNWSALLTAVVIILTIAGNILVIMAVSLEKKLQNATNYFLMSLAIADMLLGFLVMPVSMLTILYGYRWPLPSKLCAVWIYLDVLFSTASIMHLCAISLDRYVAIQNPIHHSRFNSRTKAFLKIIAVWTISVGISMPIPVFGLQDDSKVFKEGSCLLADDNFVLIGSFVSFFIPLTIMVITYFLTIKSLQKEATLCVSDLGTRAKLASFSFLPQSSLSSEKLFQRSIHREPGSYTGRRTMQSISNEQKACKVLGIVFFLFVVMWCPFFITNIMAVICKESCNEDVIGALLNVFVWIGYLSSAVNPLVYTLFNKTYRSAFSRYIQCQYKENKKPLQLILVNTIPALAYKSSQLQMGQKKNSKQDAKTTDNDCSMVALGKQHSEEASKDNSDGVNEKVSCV

Alpha2C = target: T4, Alpha2C (Homo sapiens, UniProt P18825); experiment: Secondary binding assay, Ki determination: Alpha2C
T4 construct: expressed in transfected cells
T4 sequence (P18825 1-462): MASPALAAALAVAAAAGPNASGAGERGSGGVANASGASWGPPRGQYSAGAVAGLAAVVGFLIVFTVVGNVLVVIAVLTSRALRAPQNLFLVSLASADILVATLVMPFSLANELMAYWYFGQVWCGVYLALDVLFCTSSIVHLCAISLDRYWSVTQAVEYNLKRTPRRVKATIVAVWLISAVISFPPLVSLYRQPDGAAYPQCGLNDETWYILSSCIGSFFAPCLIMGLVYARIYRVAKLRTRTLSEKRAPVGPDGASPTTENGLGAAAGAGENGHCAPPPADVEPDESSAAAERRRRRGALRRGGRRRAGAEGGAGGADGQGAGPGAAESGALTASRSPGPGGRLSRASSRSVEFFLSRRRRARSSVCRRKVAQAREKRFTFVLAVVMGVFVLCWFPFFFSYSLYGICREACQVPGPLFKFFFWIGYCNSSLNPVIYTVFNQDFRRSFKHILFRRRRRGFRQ

Alpha2A [1] = target: T5, Alpha2A (Homo sapiens, UniProt P08913); experiment: Primary binding assay at non-sigma receptors: Alpha2A; conditions: 10 μM (final) assay concentration
T5 construct: expressed in transfected cells
T5 sequence (P08913 1-465): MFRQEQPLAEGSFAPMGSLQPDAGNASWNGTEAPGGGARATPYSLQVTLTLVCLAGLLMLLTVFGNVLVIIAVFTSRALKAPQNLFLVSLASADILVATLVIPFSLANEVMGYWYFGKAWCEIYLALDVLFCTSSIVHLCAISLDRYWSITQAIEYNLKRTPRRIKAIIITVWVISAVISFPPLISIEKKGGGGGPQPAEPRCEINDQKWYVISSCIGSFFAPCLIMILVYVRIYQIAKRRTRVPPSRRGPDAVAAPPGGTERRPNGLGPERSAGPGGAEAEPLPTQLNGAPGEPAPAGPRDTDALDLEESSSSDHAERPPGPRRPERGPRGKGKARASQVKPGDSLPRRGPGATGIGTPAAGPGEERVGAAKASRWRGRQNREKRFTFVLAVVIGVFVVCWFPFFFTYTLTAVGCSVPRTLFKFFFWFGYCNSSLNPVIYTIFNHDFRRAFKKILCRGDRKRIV
Experimental: (§1) Initial primary binding screening assays were performed using a 50 μM (initial)−10 μM (final) assay concentration of reference and test compounds.

5-HT2B = target: T6, 5-HT2B (Homo sapiens, UniProt P41595); experiment: Secondary binding assay, Ki determination: 5-HT2B
T6 construct: expressed in transfected cells
T6 sequence (P41595 whole entry, species assumed): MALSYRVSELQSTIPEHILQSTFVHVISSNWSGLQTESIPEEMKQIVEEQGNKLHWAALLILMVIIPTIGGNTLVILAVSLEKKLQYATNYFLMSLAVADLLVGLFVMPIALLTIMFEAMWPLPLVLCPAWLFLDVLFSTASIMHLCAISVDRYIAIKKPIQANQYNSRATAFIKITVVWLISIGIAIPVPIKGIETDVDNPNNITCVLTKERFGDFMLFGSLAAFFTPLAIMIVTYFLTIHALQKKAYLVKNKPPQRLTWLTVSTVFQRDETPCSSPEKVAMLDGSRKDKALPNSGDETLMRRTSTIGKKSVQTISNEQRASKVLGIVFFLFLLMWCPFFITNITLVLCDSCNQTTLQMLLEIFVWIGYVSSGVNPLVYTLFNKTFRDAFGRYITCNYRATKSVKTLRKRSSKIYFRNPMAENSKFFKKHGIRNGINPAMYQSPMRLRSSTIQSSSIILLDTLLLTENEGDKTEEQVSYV

MA-10 cells = experiment: Cell viability assay (MTT) in MA-10 cells; assay type: cell-based, mouse; conditions: 24 h, varying concentrations
Experimental: Mouse Leydig cell line (MA-10) was grown in Waymouth media containing 15% horse serum, 5% fetal bovine serum, and 1× gentamycin, which was replaced with […] G418 (geneticin) for VDAC1 knockdown (ΔVDAC1) MA10 cells. Cells were maintained at 37° C. in a humidified incubator under 5% CO2. To isolate mitochondria, cells were removed from tissue culture plates by gentle scrapping in phosphate-buffered saline at room temperature, incubated in hypotonic buffer (10 mM HEPES, pH 7.4) for 30 to 40 min, and mitochondria were isolated following readily available procedures. The mitochondrial preparation was verified by Western blotting with the cytochrome P450 SCC enzyme (Corgen, Tapai, Taiwan) and calnexin antibodies (Santa Cruz Biotechnology, Inc., Santa Cruz, Calif.).
Stock solutions (1 mM) of the ligands were made in 1× phosphate buffered saline, filter-sterilized, and then further diluted up to 1 μM with serum-free medium. Cell viability was determined by the 3-[4,5-dimethylthiazol-2yl]-2,5-diphenyltetrazolium bromide assay using a commercially available kit following the manufacturer's instructions (Promega, Madison, Wis.). MA-10 cells were plated in a 96-well plate at an initial density of 4×10^3 cells per well for 24 h at 37° C. in 5% CO2 atm. After 24 h of serum starvation, the culture media were changed to serum-free media containing 1, 5, 10, 50, and 100 nM concentration for each KSCM ligand. Next, the cells were incubated for 2 to 3 h with 0.5 mg/ml of 3-[4,5-dimethylthiazol-2yl]-2,5-diphenyltetrazolium bromide reagent and lysed with dimethyl sulfoxide, and the absorbance was measured at 550 nm (FlexStation 3; Molecular Devices, Sunnyvale, Calif.).

Alpha2A [2] = target: T5, Alpha2A; experiment: Secondary binding assay, Ki determination: Alpha2A
non-sigma receptors = experiment: Binding screen against panel of non-sigma receptors (overall statement)
Experimental: as §1

## COc1cc2oc(C(=O)N(CCCN3CCCCC3)c3ccccc3)c(C)c2cc1OC [KSCM-1, 5,6-Dimethoxy-3-methyl-N-phenyl-N-(3-(piperidin-1-yl)propyl)benzofuran-2-carboxamide]
M4
  Ki: 2870 nM
5HT3
  Ki: 7610 nM
5-HT2A
  Ki: 2560 nM
Alpha2C
  Ki: 1540 nM

## Cc1c(C(=O)N(CCCN2CCCCC2)c2ccccc2)oc2ccccc12 [KSCM-5, 3-Methyl-N-phenyl-N-(3-(piperidin-1-yl)propyl)benzofuran-2-carboxamide]
Alpha2A [1]
  inhibition at 10 µM: 77.7%
5-HT2B
  Ki: 936 nM
Alpha2C
  Ki: 249 nM
MA-10 cells
  toxicity / effect on cell viability compared among the ligands (in words): most potent decrease in cell viability; also recorded: greatest toxicity
Alpha2A [2]
  Ki: 1230 nM

## COc1ccc2c(C)c(C(=O)N(CCCN3CCCCC3)c3ccccc3)oc2c1 [KSCM-11, 6-Methoxy-3-methyl-N-phenyl-N-(3-(piperidin-1-yl)propyl)benzofuran-2-carboxamide]
Alpha2A [1]
  inhibition at 10 µM: 81.1%
non-sigma receptors
  affinity at non-sigma receptors selected for secondary binding assay (in words): no significant affinity
  selectivity for sigma receptors (σ1 and σ2) over non-sigma receptors (in words): have the desired selectivity for sigma receptors
5-HT2B
  Ki: 204 nM
5-HT2A
  Ki: 2770 nM
MA-10 cells
  toxicity / effect on cell viability compared among the ligands (in words): greater cytotoxic effect than KSCM-1
Alpha2A [2]
  Ki: 653 nM
